Data from a melting point compilation (Tetko et al.; mined from patent text by program, amines drawn as free bases though some values may be those of a salt).

| Structure (SMILES) | melting point |
| --- | --- |
| CCS(=O)(=O)c1cc(OCCCCCCc2cccc(OCCCC(=O)O)c2CCC(=O)O)cc(-c2ccc3c(c2)OCO3)c1 | 134 to 135 °C |
| COc1ccc(NC(C)=C(C#N)C#N)cc1 | 254 to 255 °C |
| CC(C)OC(=O)c1cc(-n2c(=O)c(F)c(CF)n(C)c2=O)c(F)cc1Cl | 85 to 89 °C |
| CC(=O)N[C@@H](C)COc1ccc2nc(-c3ccc(OCC4CC4)c(F)c3)oc2c1 | 174 °C |
| CCn1c2ccccc2c2cc([N+](=O)[O-])ccc21 | 118 to 120 °C |
| COc1cc(NN)c(F)cc1C#N | 155 to 156 °C |
| CCCc1nc2c(C)cc(-c3nc4ccccc4n3C)cc2n1Cc1ccc(-c2ccccc2NC(=O)C(F)(F)F)cc1 | 115 to 120 °C |
| Nc1nc(-c2cccc3ccccc23)co1 | 155 to 162 °C |
| CCC(=O)OC(C)c1ccc(-c2ccc(OCc3ccccc3)cc2)cc1 (single isomer, unassigned; (+)) | 125 °C |
| Oc1ccccc1-c1ccc[nH]1 | 100 to 101 °C |
| COc1ccc(Br)c(COc2ccc3ccc(OC)cc3c2Cl)c1 | 126 to 127 °C |
| O=C(C[C@@H]1COCCO1)N[C@H]1CC[C@H](CCN2CCN(c3nccc4c3CCO4)CC2)CC1 | 192 °C |
| CN(C(=O)OC(C)(C)C)c1cc(Oc2ccc(C(F)(F)F)cc2)ccc1[N+](=O)[O-] | 92 to 93 °C |
| O=C(NC1CCN(C/C=C\CC(c2ccccc2)c2ccccc2)CC1)c1ccccc1Oc1ccccc1 | 91 to 94 °C |
| COC(=O)c1ccccc1S(=O)(=O)NC(=O)Nc1nc(N)cc(Cl)n1 | 170 to 172 °C |
| O=C(O)C(Cc1ccccc1)Nc1ncnc(-c2ccc(OCc3ccccc3)cc2)c1CO (stereo not drawn) | 114 to 117 °C |
| O=c1ccccn1C1c2cc(S(=O)c3ccccc3)ccc2OCCC1O (stereo not drawn) | 181 to 184 °C |
| CC(C)Nn1nnnc1S | 92 to 95 °C |
| CN(CCC(O)c1ccc(Cl)cc1)Cc1ccccc1F (stereo not drawn) | 52 to 54 °C |
| CC(=O)Nc1ccc(Oc2c([N+](=O)[O-])cc(C(=O)O)cc2S(N)(=O)=O)cc1 | 305 °C |
| Nc1ccccc1Sc1cccc2c1C(=O)c1cccc(Sc3ccccc3N)c1C2=O | 283 to 284 °C |
| CC(C)N=C1C(c2ccccc2)=C(c2ccccc2)C(c2ccccc2)=C1c1ccccc1 | 223 °C |
| CC(C)(C)c1ccc(CN(O)Cc2ccc(C(C)(C)C)cc2)cc1 | 108 to 110 °C |
| CCC(C)(C)c1ccc(OCC(=O)Nc2cccc(C(C)=O)c2)c(C(C)(C)CC)c1 | 135 °C |
| COc1cc(OC)c(C23CC4CC(CC(C4)C2)C3)cc1C(=O)O | 213 to 214 °C |

| Structure (SMILES) | melting point |
| --- | --- |
| CCn1nc(Cc2ccc(N)cc2)oc1=O | 88 to 89 °C |
| COC1(OC)SC(c2nccs2)=C(C)NC1=O | 127 to 128 °C |
| CCN1C(=O)CCCc2c1ccc(Nc1ncc(Cl)c(Nc3ccc(N4CCN(C)CC4)cc3OC)n1)c2OC | 186 to 187 °C |
| Nc1nc2ccccc2c2c1nc1n2C(CO)COC1 (stereo not drawn) | 239 to 240 °C |
| C=CC(=O)OCCCCCCN(C)c1ccc(C=Cc2ccc(S(C)(=O)=O)cc2)cc1 | 88 to 90 °C |
| Fc1ccc(-c2cc(C(F)(F)F)n3ncc(-c4cccnc4)c3n2)cc1Cl | 190 °C |
| Cn1ncc2c1-c1c(Oc3ccc4c(c3)OCO4)sc(C(=O)c3cccnc3)c1CC2 | 180 to 182 °C |
| Cc1cc(CN2CCN(C)CC2)cc2c1Cc1c(-c3ccsc3)n[nH]c1-2 | 235 to 236 °C |
| CC(C)(C)OC(=O)N1CCC(=CC(=O)NCc2ccc(F)c(F)c2)CC1 | 102 to 105 °C |
| O=C(NCCNCC(O)COc1ccc(OCCOCC2CCC2)cc1)N1CCOCC1 (stereo not drawn) | 91 to 93 °C |
| COC(=O)C(Oc1ccc(Cl)cc1)c1ccc(OCOc2ccc(Cl)cc2)cc1 (stereo not drawn) | 64 to 65 °C |
| CC(C)(C)OC(=O)c1cc(N=Nc2ccccc2CCC(=O)O)ccc1O | 86 to 88 °C |
| O=C1Nc2cccc(-c3cccc([N+](=O)[O-])c3)c2/C1=C/c1ccc[nH]1 | 197 to 199 °C |
| CCCc1c2c(c(C(C)(C)C)c(OC(C)=O)c1C(C)(C)C)CC(C)(C)O2 | 106 °C |
| COC(=O)C(O)C(=O)C(C)Oc1ccc(Oc2nc3ccc(Cl)cc3s2)cc1 (stereo not drawn) | 104 to 106 °C |
| Cc1cc2c3c(ccc2[nH]1)OCC(CN1CC=C(c2c[nH]c4ccccc24)CC1)O3 (stereo not drawn) | 212 to 215 °C |
| COc1cc2c(cc1OC)CNCC2 | 139 to 141 °C |
| CCCCC1CCC(c2ccc(C(=O)CC(=O)C(F)(F)F)cc2)CC1 (stereo not drawn) | 65 °C |
| Oc1ccc2cc(-c3cnc(-c4cn(Cc5ccccc5)c5ccccc45)o3)ccc2c1 | 242 to 244 °C |
| CCCCc1nc(Cl)c(C(=O)O)n1Cc1ccc2oc(-c3ccccc3C(=O)OCC)c(Br)c2c1 | 148 to 150 °C |
| Cc1ccccc1N1CCN(Cc2n[nH]c3ccccc23)CC1 | 135 to 136 °C |
| COc1ccc(CNc2c(C)c(C)c3c(c2C)C(c2ccc(F)cc2)C(C)(C)O3)cc1 (stereo not drawn) | 114 to 115 °C |
| CC12C=CC(=O)NC1CCc1cc(Cl)ccc12 (stereo not drawn) | 151 to 154 °C |
| CCOC(=O)C1=C(C)NC(C)=C(C(=O)OCCN2CCN(C(c3ccccc3)c3ccccc3)CC2)C1c1cccc(Cl)c1 (stereo not drawn) | 72 to 75 °C |
| N#CC(C(=O)Nc1ccccc1)C(=O)c1nn(-c2ccccc2)c2c1CSc1ccc(NC(=O)CCC(=O)O)cc1-2 (stereo not drawn) | 230 to 233 °C |

| Structure (SMILES) | melting point |
| --- | --- |
| CC(=O)NC(=S)NC1CC2c3cccc4[nH]cc(c34)CC2N(C)C1 (stereo not drawn) | 240 to 242 °C |
| O=C(OCC1OC(c2ccc(Cl)c(Cc3cc4ccccc4s3)c2)C(OC(=O)c2ccccc2)C(OC(=O)c2ccccc2)C1F)c1ccccc1 (stereo not drawn) | 204 to 207 °C |
| CCc1cnc(-c2ccc(OC)cc2)c(-c2ccc(OC)cc2)n1 | 76.5 to 78 °C |
| CC1(C)CC(=O)C2=C(C1)NC1=C(C(=O)CC(C)(C)C1)C2c1ccc2ccccc2c1 | > 300 °C |
| C#CCc1c(Cl)nc(NC=O)nc1Cl | 127 to 128 °C |
| N#CC1(N)CCOCC1 | 46 to 47 °C |
| O=C(c1cccnc1)C(O)c1ccccc1Br (stereo not drawn) | 105 to 108 °C |
| COc1cccc(CCCC(=O)O)c1OC | 58 to 59 °C |
| O=C(O)CNC(=O)C(CS)Cc1ccc2c(c1)OCO2 (racemic) | 94 °C |
| CN(C)Cc1nnc2n1-c1sc(Cl)cc1C(c1ccccc1[N+](=O)[O-])=NC2 | 234 to 236 °C |
| NCC(O)COc1ccc(OCC(O)CN)cc1 (stereo not drawn) | 128 to 132 °C |
| OC1(c2ccc3c(c2)OCO3)CCNCC1 | 135 to 138 °C |
| Cc1ccc(S(=O)(=O)Nc2ccc(N)c([N+](=O)[O-])c2)cc1 | 146 °C |
| CCOC(=O)C1=C(C)N2CCNC2=C(C(=O)OCC)C1c1cccc2ccccc12 (stereo not drawn) | 169 to 170 °C |
| Cc1cc(-c2c[nH]cc2C#N)c(Cl)cc1F | 132 to 133 °C |
| CCCc1c(OCCCCCCc2ccc3cc(OCc4ccccc4)c(OCc4ccccc4)cc3c2)ccc(C(=O)OCc2ccccc2)c1O | 94 to 97 °C |
| Cc1ccc(O[C@@H]2CNCC[C@H]2O)cc1C (relative stereo) | 98 to 99 °C |
| Cc1cc(=O)[nH]c(=O)n1Cc1ccccc1 | 228 to 230 °C |
| CN(C)C(=O)c1cnn(-c2ccccc2)c1Br | 79 to 81 °C |
| O=C(O)c1cc(-c2ccc([N+](=O)[O-])cc2)c(-c2ccc(F)cc2)s1 | 227 to 229 °C |
| CC(C)(C)c1cc(C=C2CCNC2=O)cc(C(C)(C)C)c1O | 216 to 218 °C |
| CN(C)c1ccc(Br)cn1 | 39 to 41 °C |
| Cc1cccc(N=C(N)N(C)C)c1N1CCOCC1 | 100 °C |
| CC(Oc1ccc(Oc2ccc3ccc(Br)cc3n2)cc1)C(=O)NCC(=O)O (stereo not drawn) | 157 to 159 °C |
| Cc1cc(Br)cnc1CCCCNc1ncc(Cc2ccccc2)c(=O)[nH]1 | 138 to 139 °C |

| Structure (SMILES) | melting point |
| --- | --- |
| C=Cc1cccc2ccc(O)nc12 | 96 °C |
| CCCCCCCCCCCCCCCCOCC(CO)COC(c1ccccc1)(c1ccccc1)c1ccccc1 (stereo not drawn) | 38 °C |
| CC(=O)c1cc2c(cc1NC(=O)c1sccc1S(=O)(=O)Nc1onc(C)c1Cl)OCO2 | 191 to 193 °C |
| OCCN(CCO)Cc1ccc(-c2cc3ncnc(Nc4ccc5[nH]ccc5c4)c3s2)cc1 | 110 to 127 °C |
| O=C(N1CC([N+](=O)[O-])([N+](=O)[O-])C1)C(F)(F)F | 70 to 71 °C |
| CN1CC(C(=O)COC(=O)c2cccnc2)CC2c3cccc4[nH]cc(c34)CC21 (stereo not drawn) | 172 to 174 °C |
| CC(=O)Oc1ccccc1C(=O)Nc1cccc(F)c1 | 88.5 to 89.7 °C |
| Oc1cc2c(-c3ccc(Cl)cc3)csc2c(Cl)c1Cl | 174 to 176 °C |
| CC1(C)COC(CCCc2ccc(NC=NO)cc2)OC1 | 138 to 140 °C |
| C/C(=C\C=C\Cn1oc(=O)[nH]c1=O)c1cccc(OCc2nc(-c3ccccc3)oc2C)c1 | 117 to 118 °C |
| O=C1c2ccccc2C(=O)N1OCc1cc(Cl)c2c(c1Cl)OC(c1ccccc1)(c1ccccc1)O2 | 127 to 129 °C |
| COCCNn1ncc2nc(C)ccc21 | 167 to 170 °C |
| Cc1cc(C)cc(S(=O)c2cccc(F)c2C#N)c1 (stereo not drawn) | 146 to 147 °C |
| CCCCOC(=O)N(C)C(CNC(=O)CC1CC(c2ccc(C#N)cc2)=NO1)C(=O)O (stereo not drawn) | 154 to 156 °C |
| O=[N+]([O-])c1ccc(Sc2ccccc2)c(CCl)c1 | 58 to 60 °C |
| COc1ccc(-c2nc(CCCCCc3nnn[nH]3)oc2-c2ccc(OC)cc2)cc1 | 150 °C |
| CC(C)(C)[S@@](=O)/N=C/c1cc(F)cc(C#N)c1 | 93 to 99 °C |
| CCCCCCCCCCCCCCCCCCOC(=O)CCc1cc(C)c(O)c(C(C)(C)C)c1 | 58 to 59 °C |
| CCOC[C@@H]1[C@H](c2ccc(Cl)c(Cl)c2)C[C@H]2CC[C@@H]1N2C | 52.5 to 54.5 °C |
| Cc1ccc(-c2nc(-c3ccc(O)cc3O)nc(-c3ccc(O)cc3O)n2)c(C)c1 | 204 to 207 °C |
| COc1ccc2c(NC(N)=O)c(C(=O)Nc3ccc(Cl)cc3Cl)oc2c1 | > 260 °C |
| CNC(=O)CCCCCCCCn1ccnc1 | 64 to 66 °C |
| CN1CC(c2ccc(Cl)cc2)=NN(c2ccc(Cl)cc2)C1=O | 174 to 176 °C |
